In patent US8178506B2, “Oligomeric compounds and compositions for use in modulation of small non-coding RNAs” (Regulus Therapeutics Inc., priority 2003, dated 2012):
“And” between values parts separate entries of the source, which are not always exact repeats. Identical values can stand only once. In the oligonucleotide strings, read from the 5' end, every base follows the letter of its sugar. An asterisk marks phosphorothioate; unmarked linkages are phosphodiester. Other units and linkages are bracketed, terminal groups are in braces. A string of capitals states the bases alone. e = 2'-O-(2-methoxyethyl) (MOE); [5mC] = 5-methylcytosine; d = 2'-deoxy (DNA)

Tested on: HeLa cells
Assay: Cell cycle assay in HeLa cells
Type: cell-based, human
Settings: HeLa cells; for % cells in cell cycle phase: G1 / % cells in cell cycle phase: G2/M / % cells in cell cycle phase: S / % cells in cell cycle phase: aneuploid / % cells in cell cycle phase: subG1: 48 hours after treatment, relative to untreated control (UTC=100)
Protocol: In some embodiments, HeLa cells were plated on collagen-coated 24-well plates at 50,000-60,000 cells per well, and allowed to attach to wells overnight. In some embodiments, HeLa cells were synchronized by double thymidine block (cells were washed three times with PBS, then grown in 10% FBS containing 2 mM thymidine; then 19 hours later, cells were washed three times in PBS, 10% FBS for 9 hours; cells were then incubated in 10% FBS, 2 mM thymidine for 15 hours; then washed three times with PBS, 10% FBS and samples were taken every two hours over a 16 hour period). A portion of each time sample was fixed with ethanol and treated with propidium iodide and subjected to FACs analysis for determination of the percentage of cells in each phase of the cell cycle. […] HeLa cells treated with 10 μM cisplatin or 100 ng/ml nocodazole were used as controls for G1-phase and late G2/M-phases, respectively. From the remaining portion of each of these time samples, total RNA was isolated and used to assess the expression of cell cycle marker mRNAs using the real-time RT-PCR methods and/or used to screen microarrays to assess the expression of miRNAs over the course of the cell cycle. It was observed that several miRNAs are expressed in a cell-cycle-dependent manner. Shown in Table 30 are the mRNA levels of the E2F1 transcription factor and topoisomerase 2A (Top2A), which vary over the course of the cell cycle and can be used for comparison to the experimental groups for the confirmation of cell cycle phase. Data are an average of three trials.
In some embodiments, HeLa cells were also treated with oligomeric compounds targeting miRNAs. […] The medium was removed from the plates. Each well was washed in 250 μl of PBS. […] Control cells received LIPOFECTIN™ only. […] After 24 hours (Table 31) or 48 hours (Table 32), cells were prepared for flow cytometry analysis to generate a cell cycle profile. The cell cycle profile was analyzed with the ModFit program (Verity Software House, Inc., Topsham Me.).
The random-mer ISIS 29848 (SEQ ID NO: 737) was used as a negative control, and ISIS 183891 (SEQ ID NO: 847), targeting kinesin-like 1/Eg5, was included as a positive control. Data are expressed as percentage of cells in each phase relative to the untreated control (UTC); values above 100 are considered to indicate a delay or arrest in that phase of the cell cycle. […] In some cases, the same oligomeric compound was tested in repeated experiments.
In accordance with the present invention, certain oligomeric compounds targeting miRNAs were selected for dose response studies. Using the cell cycle assay described above, the cell cycle profiles of HeLa or A549 cells treated with varying concentrations of oligomeric compounds of the present invention were assessed.
HeLa cells were treated with 25-, 50-, 100- or 150 nM of the oligomeric compounds ISIS
Numbers 327902 (SEQ ID NO: 320) and 328383 (SEQ ID NO: 492), both targeted against mir-192, and ISIS 327905 (SEQ ID NO: 323), targeting mir-205, and ISIS 328403 (SEQ ID NO: 512), targeting mir-106. Cells treated with increasing concentrations of oligomeric compounds were compared to untreated cells, to assess the dose-dependency of the observed delay or arrest. The random-mer ISIS 29848 was used as a negative control. Cells were prepared for flow cytometry 48-hours after oligonucleotide treatment, as described, supra.

[1] = 150 nM oligomeric compound, 24 hours, relative to untreated control (UTC = 100)
[2] = 150 nM, 48 hours, relative to untreated control

Substance | % cells aneuploid [1] | % cells in cell cycle phase G1 [1] | % cells in cell cycle phase G2/M [1] | % cells in cell cycle phase S [1] [%] | % cells in cell cycle phase subG1 [1] | % cells in cell cycle phase: G1 (150 nM oligomeric compound) | % cells in cell cycle phase: G2/M (150 nM oligomeric compound) | % cells in cell cycle phase: S (150 nM oligomeric compound) | % cells in cell cycle phase: aneuploid (150 nM oligomeric compound) | % cells in cell cycle phase: subG1 (150 nM oligomeric compound) [%] | % cells in cell cycle phase G1 [2] [%] | % cells in cell cycle phase G2/M [2] [%] | % cells in cell cycle phase S [2] [%] | % cells in cell cycle phase aneuploid [2] [%] | % cells in cell cycle phase subG1 [2] [%]
328337 (eG*e[5mC]*eT*eA*eG*dA*dT*dA*d[5mC]*dA*dA*dA*dG*dA*dT*eG*eG*eA*eA*eA) [compound 328337] | 104% and 64% | 106% and 108% | 113% and 109% | 88 | 107% and 99% | 92% and 73% | 119% and 135% | 105% and 143% | 108% and 74% |  |  |  |  |  | 
328339 (eG*e[5mC]*eA*eG*e[5mC]*dG*d[5mC]*dA*dG*d[5mC]*dT*dG*dG*dT*d[5mC]*eT*e[5mC]*e[5mC]*e[5mC]*e[5mC]) [compound 328339] | 61% | 77% | 143% | 102 | 235% | 73% | 123% | 153% | 92% | 678 |  |  |  |  | 
328674 (eT*eG*e[5mC]*e[5mC]*e[5mC]*dT*dG*d[5mC]*dT*d[5mC]*dA*dG*dA*dG*d[5mC]*e[5mC]*e[5mC]*eT*eA*eG; antisense) [compound 328674] | 69% | 125% | 84% | 93 | 564% | 69% | 109% | 160% | 134% | 1663 |  |  |  |  | 
328676 (eA*e[5mC]*e[5mC]*eT*e[5mC]*d[5mC]*d[5mC]*dA*dG*d[5mC]*d[5mC]*dA*dA*dT*d[5mC]*e[5mC]*eA*eT*eG*eT; antisense) [compound 328676] | 169% | 99% | 134% | 86 | 139% | 86% | 118% | 118% | 172% | 366 |  |  |  |  | 
328707 (eG*e[5mC]*eA*eA*e[5mC]*dA*dG*dG*d[5mC]*d[5mC]*dT*d[5mC]*dA*dA*dT*eA*eT*e[5mC]*eT*eT) [compound 328707] | 166% | 36% | 195% | 93 | 188% | 46% | 213% | 134% | 155% | 1486 | 103 | 122 | 87 | 140 | 125
328724 (antisense eG*eA*e[5mC]*eA*eT*d[5mC]*dA*dT*dG*dT*dG*dA*dT*dT*dT*eG*e[5mC]*eT*e[5mC]*eA) [compound 328724] | 197% | 91% | 135% | 90 | 155% | 70% | 140% | 134% | 155% | 653 |  |  |  |  | 
328727 (antisense e[5mC]*eT*eG*e[5mC]*eT*d[5mC]*d[5mC]*dA*dG*dA*dG*d[5mC]*d[5mC]*d[5mC]*dG*eA*eG*eT*e[5mC]*eG) [compound 328727] | 161% | 133% | 105% | 81 | 245% | 68% | 124% | 152% | 140% | 846 |  |  |  |  | 
328749 (antisense e[5mC]*eA*eG*e[5mC]*e[5mC]*dT*dG*d[5mC]*d[5mC]*dA*d[5mC]*d[5mC]*dG*d[5mC]*d[5mC]*eG*e[5mC]*eT*eT*eT) [compound 328749] | 138% | 126% | 110% | 82 | 312% | 37% | 246% | 129% | 65% | 962 |  |  |  |  | 
328780 (antisense eT*eG*eT*e[5mC]*eA*dT*dG*dG*dA*d[5mC]*dA*dG*dG*dA*dT*eG*eA*eA*eT*eA) [compound 328780] | 149% | 96% | 136% | 87 | 124% | 83% | 110% | 130% | 133% | 917 |  |  |  |  | 
338666 (antisense TCACGTGGAGAGGAGTTAAA; all 2'-MOE, all phosphorothioate, methylation of C not given here) [compound 338666] | 102% | 123% | 158% | 63 | 235% | 44% | 217% | 136% | 125% | 1832 | 92 | 130 | 98 | 151 | 214
338678 (antisense CTGGTTGGGTATGAGACAGA; all 2'-MOE, all phosphorothioate, methylation of C not given here) [compound 338678] | 202% | 122% | 131% | 75 | 162% | 81% | 188% | 78% | 179% | 1158 | 103 | 105 | 94 | 132 | 129
